The values below are quoted from earlier work in PMC12824232 (Nature Communications, 2025).

Data set [1] has as its system ER+/HER2− advanced breast cancer. Conditions: patients with ESR1 mutations, phase 3 trial.
Data set [2] relates to patients with ER+/HER2− advanced breast cancer. Conditions: phase 2 trial.

Molecules are shown by their SMILES.

For the compound `CCNCCc1ccc(CN(CC)c2cc(OC)ccc2[C@@H]2CCc3cc(O)ccc3C2)cc1` [elacestrant], in data set [1], the “median PFS” value is reported as 3.8 months. In the case of `O=C1CC[C@H](N2Cc3cc(N4CCN(CC5CCN(c6ccc([C@@H]7c8ccc(O)cc8CC[C@@H]7c7ccccc7)cc6)CC5)CC4)ccc3C2=O)C(=O)N1` [vepdegestrant], in data set [2], the “patients with Grade 3/4 TRAEs” value is 6%.
